From patent US10391150B2, “Treatments for migraine and related disorders” (The University of Chicago, priority 2011, dated 2019)
“Also recorded” adds a separate entry of the source.

Assays:
[1] = test system: oxidative stress (OS) in hippocampal slice cultures; assay: Oxidative stress (OS) by CellROX fluorescence in hippocampal slice cultures (CA3); format: cell-based, rat
Protocol: FIGS. 4A-4F Oxidative stress (OS) from SD and its reduction by IGF-1. (FIG. 4A) Normal cytoarchitecture of a hippocampal slice culture showing pyramidal neuron areas of CA1, dentate gyrus (DG), and the imaging zone for the inventors' work here (dotted line), CA3. (FIG. 4B) OS was measured using CellROX, a fixable fluorescent marker from Invitrogen. […] (FIG. 4D) This reduction versus control SD was significant (p<0.02; n=4 & 5). (FIG. 4E) CellROX can be used to measure relative OS in specific brain cell types.
FIGS. 9a-9f IGF-1 decreased oxidative stress from spreading depression. (FIG. 9a) NeuN immunohistochemical labeling of a hippocampal slice culture, for cytoarchitectural reference and to show the CA3 area of interest (dotted line box) used for quantification of oxidative stress (OS) via CellROX™ fluorescence intensity. (FIGS. 9b-c) Representative CellROX™-labeled hippocampal slices exposed to SD (FIG. 9b) and to 3-day IGF-1 incubation followed by spreading depression (SD) (FIG. 9c). Dotted line boxes illustrate CA3 areas of interest used for relative OS quantifications. […] Again, seven day treatments consisted of exposing cultures to IGF-1 for 12 hours a day for seven days. Note: IGF-1 exposure was continued for the additional 24 hour CellROX™ incubation. Scale bars=400 μm (a) and 200 μm (b and c). Comparisons between groups were made via ANOVA plus Holm-Sidak post hoc testing.
FIGS. 11a-11g IGF-1 decreased CA3 oxidative stress (OS) and its related hyperexcitability. […] Relative evoked excitability was determined as a sum of responses seen (e.g., responses of “2” and a “3” yielded an overall excitability score of five). […] (FIGS. 11d-e) Exemplary images of control (FIG. 11d) slice culture OS compared to increased slice OS induced by exposure to menadione (FIG. 11e). Calibration bar, 200 Dotted boxes indicate CA3 areas of interest used for relative OS quantifications (f and g).
Oxidative stress from SD preferentially rises in astrocytes and microglia, with the latter effect mitigated by IGF-1 (FIG. 13). The inventors have recently shown that spreading depression (SD), the most likely cause of migraine aura and perhaps migraine (Lauritzen and Kraig, 2005), occurs with increased oxidative stress (OS) and that OS, in turn, increases SD susceptibility (Grinberg et al., 2012). Reactive oxygen and nitrogen species that cause OS have both autocrine and paracrine signaling capacities that can affect SD susceptibility by altering excitability (Kishida and Klann, 2007). Accordingly, the inventors looked for the cellular origin of OS from SD. Here the inventors used hippocampal slice cultures (HSC) to probe for cell-specific changes in OS from SD. SD was induced trans-synaptically in rat HSCs using bipolar electrical stimuli at the dentate gyrus (Pusic et al., 2011). Six SDs were induced every 7-9 min over an hr, followed by 24 hr incubation in CellROX™, a fixable fluorogenic probe for measuring OS (Grinberg et al., 2012). HSCs were then fixed in 10% buffered formalin phosphate. Other fixatives (PLP, 4% paraformaldehyde) prevented detection of OS change. Tissue was then labeled for neurons (anti-NeuN), oligodendrocytes (anti-RIP), astrocytes (anti-GFAP), or for microglia (isolectin GS-IB4).

[2] = test system: SD in neocortex and hippocampus of anesthetized rat; assay: SD threshold in vivo (0.5 M KCl injection) after nasal administration; settings: control 1-8 nL
Protocol: Images show experimental setups for nasal administration and testing. (FIG. 7A) Nasal injection setup showing heat lamp and thermo-regulator that maintains temperature at 37° C. plus nose cone used to deliver isoflurane anesthesia. (FIG. 7B) Operator is shown administering nasal IGF-1 solution, which is performed in a fume hood to adequately vent isoflurane from nose cone. (FIG. 7C) Image illustrates standard electrophysiology setup. Anesthetized animal is placed into a standard electrophysiology holder and anesthesia maintained by a nose cone delivering 3% isoflurane in oxygen. Arterial oxygen saturation is monitored with a pulse-oximeter. Animals are warmed to 37.5° C. with a heating plate. SD is induced by progressively injecting larger volumes of 0.5 M KCl from an 8 μm diameter microelectrode. SD is registered with a second microelectrode used for DC recordings placed more caudally. After SD is evoked by a given injection pulse, the stimulating electrode is withdrawn and a volume re-injected under mineral oil. The diameter of the resultant KCl injection sphere is then measured off line using a compound microscope and the injection volume calculated. For example, in the above whole animal experiments it took 1-8 nL of 0.5 M KCl to evoke SD in control brain regions while after acute IGF-1 this amount rose to 67-109 nL. A day after IGF-1 treatment the volume needed to evoked SD was 34-48 nL. IFN-γ treatment required 338 nL of 0.5 M KCl a day after treatment and IL-11 required 67-200 nL.
Rats (FIGS. 6 and 7) are anesthetized with inhalational isoflurane and kept warm. While anesthetized, animals are placed in a supine position and 50 μL of sterile drug (i.e., IFN-γ, IGF-1, or IL-11) solution [or sterile saline vehicle (sham control)] is administered nasally by delivering 5 μL alternating between the left and right naris every 2 min over 20 minutes. Animals are given nasal drug treatments daily at the same time for 7 days before subsequent experiments. Doses for all 3 agents begin with the effective doses noted in our work using slice cultures (1×), then include others (0.1× and 10×). The inventors base this strategy on the fact that the effective culture dose for IGF-1 (40 ng/mL) closely approximates the dose used in vivo (143 μg/kg).
This approach was applied to measurement of SD threshold (FIG. 10) after treatment (FIG. 7) with nasally administered IGF-1 (150 μg), IL-11 (1 μg), IFN-γ (50,000 units), and insulin (20 μg). […] Resistance against SD was always greater in hippocampus compared to neocortex (n=4, controls; n=3, acutely after IGF-1; n=6, one day after IGF-1; n=6, one day after IL-11; n=6, one day after IFN-γ; and n=3, acutely after insulin).
Nasal administration followed by SD threshold evaluation in vivo. Vehicle or human recombinant IGF-1 (150 μg) is administered intranasally. SD threshold is established by injection of nanoliter volumes of 0.5 M KCl into neocortex or hippocampus (−2.0 mm from Bregma and 1.5 mm lateral from midline at either 750 μm or 2,800 μm into brain, respectively) using a thin-walled glass pipette and Picospritzer. Once a threshold is established, it is confirmed two more times, with an exemplary record from a vehicle-sham animal shown below. […] The diameter of the injected sphere is then measured using a compound microscope and used to calculate the injected volume, then moles of potassium. […]

[3] = a day after nasal treatment (IGF-1 150 μg; IL-11 1 μg; IFN-γ 50,000 units)

## Insulin-like growth factor 1 [IGF-1]
[1]; 3-day IGF-1 alone
  baseline slice culture OS versus control: significantly reduce baseline OS; also recorded: reduced slice culture OS
[1]; 3-day exposure to IGF-1
  decrease in OS from SD: 30%
[1]; 7-day exposure to IGF-1 alone
  reduction of baseline OS levels compared with controls: 26%
[1]; 7 days IGF-1, phasic
  decrease in OS from SD: 73%
[1]; IGF-1 (40 ng/mL) for 3 days prior to SD
  increased OS induced by SD: reduction in OS; also recorded: abrogated
[1]; IGF-1 acutely
  increased OS induced by SD: abrogated
[1]; IGF-1 for 7 days prior to SD, 12 hours a day
  increased OS induced by SD: significantly reduced
[1]; acute IGF-1 exposure alone
  baseline slice culture OS versus control: did not reduced slice culture OS
[1]; acute treatment with IGF-1
  decrease in OS from SD: 20%
[1]; menadione exposure, without or with acute IGF-1
  OS induced by menadione versus control: abrogated; also recorded: reduced OS from menadione
[1]; pretreatment with IGF-1 for 3 days
  OS induced by menadione versus control: abrogated; also recorded: reduced menadione-induced significant increase in OS
[2]; [3]
  volume of 0.5 M KCl needed to evoke SD: 34 to 48 nL
[2]; acutely after nasal treatment (IGF-1 150 μg; insulin 20 μg)
  volume of 0.5 M KCl needed to evoke SD: 67 to 109 nL

B1: Interferon-gamma (protein, listed as Homo sapiens)
chain: MKYTSYILAFQLCIVLGSLGCYCQDPYVKEAENLKKYFNAGHSDVADNGTLFLGILKNWKEESDRKIMQSQIVSFYFKLFKNFKDDQSIQKSVETIKEDMNVKFFNSNKKKRDDFEKLTNYSVTDLNVQRKAIHELIQVMAELSPAAKTGKRKRSQMLFRGRRASQ
[1]; transient (pulsed) IFN-γ 500 U/mL × 12 hours, assessed seven days later
  OS: OS is reduced; also recorded: similarly reduced
[2]; [3]
  volume of 0.5 M KCl needed to evoke SD: 338 nL
